From patent US20210309631A1, “SALT OF CYCLOHEXANE DERIVATIVE” (priority 2018, published 2021)
Where two headings read alike, the source gives them in different places.

Legend:
[1] = Crystal form stability on heating (XRPD before and after heating); type: physicochemical
[2] = solubility in water; type: physicochemical
[3] = Hygroscopicity (DVS) experiment, 25° C./80% relative humidity; type: physicochemical; settings: for Hygroscopicity / Vapor sorption: 25° C./80% relative humidity; for hygroscopicity (summary in words): within one week
Description: Dynamic vapor sorption curves were collected on a DVS Intrinsic by SMS (Surface Measurement Systems).
20 mg sample of the crystal forms of the Examples and Comparative Examples are placed in the environment of 25° C./80% relative humidity for a dynamic vapor sorption (DVS) test, and the test results […] are shown in Table 5.

[4] = Plasma pharmacokinetics in SD rats after single intragastric administration (Example 7); type: in vivo; settings: intragastric 1 mg/kg; for MRT inf: read-out: MRT0-∞
Description: The in vivo absorption process and characteristics of the free base and four salts thereof (sulfate, hydrochloride salt, phosphate, maleate) of compound (I) in rats were studied. The pharmacokinetics of a single intragastric administration of 1 mg/kg of a compound of Formula I and four salts thereof (calculated by free base concentration in salt form) were studied in SD rats.
SD rats were given a single intragastric administration of 1 mg/kg free base of Example 1 and four salts thereof (including hydrochloride salt from Example 2, sulfate from Example 3, phosphate from Example 4 and maleate from Example 5). There were 4 male rats in each group. The concentration of the compound of Formula I in plasma was determined, and the pharmacokinetic parameters were calculated according to the concentration-time curve.

[5] = In vivo individual difference analysis: individual plasma concentration versus time in rats (Example 8); design: species or system SD rats; settings: intragastric 1 mg/kg; for Plasma Concentrations of Compound of Formula I: listed as Hydrochloride Salt of Compound of Formula I
Description: Compound of Formula I and salts thereof (sulfate, hydrochloride salt, phosphate, maleate), supplied by Shanghai Jingxin Biopharmaceutical Co., Ltd. • Strain: SD rats; Gender: male; Body weight: about 250 grams; Source: shanghai Jiesijie Experimental Animal Co., Ltd Route: single intragastric administration; Capacity: measured in 10 mL/kg body weight Preparation: weighing appropriate amount of the free base or salt of the compound of Formula I, adding a small amount of 0.5% CMC-Na to grind, adding 0.5% CMC-Na to the volume. The concentration is measured as the base. 20 SD rats were divided into 5 groups with 4 rats in each group, fasted for 12 h and drank freely before administration. […] The blood was anticoagulated with 1% heparin, the plasma was separated by 8000 rpm centrifugation for 4 min and stored at -40° C. for testing. LC-MS/MS Method. Pharmacokinetic parameters after administration in rats were calculated using a non-compartmental model of DAS 2.0 software.

[6] = DVS, listed as Example 2 hydrochloride salt
[7] = male, SD, rat, plasma, po, 1 mg/kg, Mean ± SD, non-compartmental model
[8] = male, SD, rat, plasma, po, 1 mg/kg, Mean ± SD, non-compartmental model, read-out: Tmax
[9] = DVS, listed as Example 4 phosphate
[10] = Mean ± SD, non-compartmental model, listed as Phosphate

SMILES: CN(C)C(=O)N[C@H]1CC[C@H](CCN2CCN(c3cccc4ccsc34)CC2)CC1 [Comparative Example 12, N′-[trans-4-[2-[7-(benzo[b]thiophene)-7-piperazinyl]ethyl]cyclohexyl]-N,N-dimethylurea]
- stability of the crystal form ([1]; compared with maleate Form A, after being heated): lower than that of maleate Form A
- crystal form after heating ([1]; heated to 150° C. and cooled to room temperature, XRPD): turned to maleate Form A

SMILES: CN(C)C(=O)N[C@H]1CC[C@H](CCN2CCN(c3cccc4ccsc34)CC2)CC1 [Example 2, N′-[trans-4-[2-[7-(benzo[b]thiophene)-7-piperazinyl]ethyl]cyclohexyl]-N,N-dimethylurea]
- solubility in water ([2]; listed as hydrochloride salt Form B): greater than 4.6 mg/ml
- Hygroscopicity [3, 6]: Almost no
- Vapor sorption [3, 6]: 0.21%
- hygroscopicity (summary in words) ([3]; DVS): almost no hygroscopicity or slight hygroscopicity
- AUC [4, 7]: 96.9 ± 29.3 ng·h/mL
- AUC(0-inf) [4, 7]: 99.1 ± 28.9 ng·h/mL
- Cmax [4, 7]: 36.5 ± 13.1 ng/mL
- half-life [4, 7]: 4.72 ± 2.66 h
- MRT inf [4, 7]: 4.27 ± 2.2 h
- Tmax [4, 8]: 0.625 ± 0.25 h
- Plasma Concentrations of Compound of Formula I ([5]; 0.333 h after administration, Mean ± SD): 29.4 ± 16.4 ng/mL
- Plasma Concentrations of Compound of Formula I ([5]; 0.333 h after administration, rat 1♂): 37.6 ng/mL
- Plasma Concentrations of Compound of Formula I ([5]; 0.333 h after administration, rat 2♂): 25.9 ng/mL
- Plasma Concentrations of Compound of Formula I ([5]; 0.333 h after administration, rat 3♂): 8.18 ng/mL
- Plasma Concentrations of Compound of Formula I ([5]; 0.333 h after administration, rat 4♂): 45.9 ng/mL
- Plasma Concentrations of Compound of Formula I ([5]; 0.5 h after administration, Mean ± SD): 35.1 ± 15.6 ng/mL
- Plasma Concentrations of Compound of Formula I ([5]; 0.5 h after administration, rat 1♂): 48.3 ng/mL
- Plasma Concentrations of Compound of Formula I ([5]; 0.5 h after administration, rat 2♂): 30.6 ng/mL
- Plasma Concentrations of Compound of Formula I ([5]; 0.5 h after administration, rat 3♂): 15.0 ng/mL
- Plasma Concentrations of Compound of Formula I ([5]; 0.5 h after administration, rat 4♂): 46.4 ng/mL
- Plasma Concentrations of Compound of Formula I ([5]; 1 h after administration, rat 1♂): 32.4 ng/mL
- Plasma Concentrations of Compound of Formula I ([5]; 1 h after administration, rat 2♂): 25.3 ng/mL
- Plasma Concentrations of Compound of Formula I ([5]; 1 h after administration, rat 3♂): 20.8 ng/mL
- Plasma Concentrations of Compound of Formula I ([5]; 1 h after administration, rat 4♂): 42.7 ng/mL

SMILES: CN(C)C(=O)N[C@H]1CC[C@H](CCN2CCN(c3cccc4ccsc34)CC2)CC1 [Example 4, N′-[trans-4-[2-[7-(benzo[b]thiophene)-7-piperazinyl]ethyl]cyclohexyl]-N,N-dimethylurea]
- solubility in water ([2]; listed as phosphate Form A): greater than 7.6 mg/ml
- Hygroscopicity [3, 9]: Slight
- Vapor sorption [3, 9]: 0.61%
- MRT0-∞ [4, 10]: 3.06 ± 0.434 h
- Tmax [4, 10]: 0.833 ± 0.333 h
- t1/2 [4, 10]: 3.25 ± 1.23 h

SMILES: CN(C)C(=O)N[C@H]1CC[C@H](CCN2CCN(c3cccc4ccsc34)CC2)CC1.O=C(O)/C=C\C(=O)O [Example 5, N′-[trans-4-[2-[7-(benzo[b]thiophene)-7-piperazinyl]ethyl]cyclohexyl]-N,N-dimethylurea]
- solubility [2]: > 2600 µg/mL
- hygroscopicity compared with other salts ([3]; DVS): less hygroscopic than other salts
- Hygroscopicity ([3]; DVS): Almost no
- Vapor sorption ([3]; DVS): 0.12%
- hygroscopicity (summary in words) ([3]; DVS): almost no hygroscopicity or slight hygroscopicity
- The crystal form changes after DVS testing or not ([3]; after DVS testing): No
- bioavailability (in words) ([4]; compared with other salts): highly bioavailable
- half-life (in words) ([4]; compared with other salts): relatively long half-life
- AUC [4, 7]: 124 ± 5.79 ng·h/mL
- AUC(0-inf) [4, 7]: 125 ± 7 ng·h/mL
- Cmax [4, 7]: 45.4 ± 2.81 ng/mL
- half-life [4, 7]: 4.67 ± 2.17 h
- MRT inf [4, 7]: 3.07 ± 0.531 h
- Tmax [4, 8]: 0.75 ± 0.289 h
- individual difference of plasma concentration ([5]; compared with other salts): smallest
